“And” between values parts separate entries of the source, which are not always exact repeats. Equal values may be shown once.
Target: hCB1 (Homo sapiens, UniProt P21554)
Assay: bioSensAll ebBRET signaling profiling, hCB1
Assay type: cell-based
Parameters: host or cells: HEK293SL cells, transient PEI transfection
Settings: for Gi1 hCB1 response: Gi1 biosensor; for Gi1 hCB1 / GoB hCB1: single replicate values, FigS6a

hCB1, sequence (P21554 whole entry): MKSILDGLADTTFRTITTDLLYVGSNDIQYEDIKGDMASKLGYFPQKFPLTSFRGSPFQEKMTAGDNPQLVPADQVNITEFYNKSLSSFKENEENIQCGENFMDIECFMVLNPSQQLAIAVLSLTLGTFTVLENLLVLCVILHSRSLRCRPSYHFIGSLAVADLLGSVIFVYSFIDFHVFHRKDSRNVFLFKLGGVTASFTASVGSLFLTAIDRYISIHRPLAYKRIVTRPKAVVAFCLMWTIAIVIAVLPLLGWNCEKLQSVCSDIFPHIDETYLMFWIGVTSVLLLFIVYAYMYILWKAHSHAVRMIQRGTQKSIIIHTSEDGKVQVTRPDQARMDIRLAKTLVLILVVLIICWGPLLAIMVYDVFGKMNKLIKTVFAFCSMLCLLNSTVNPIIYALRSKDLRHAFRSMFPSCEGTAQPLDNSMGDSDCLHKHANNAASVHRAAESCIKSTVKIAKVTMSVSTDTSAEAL

Cc1cc(C(=O)N2CC3(CCC3)[C@@H]2[C@H]2CCCO2)nn1-c1cccc(C(F)(F)F)c1 (single isomer, unassigned) [compound 430]
Gi1 hCB1 response (Log [Compound] (M) -4.22186): 4.286 | Gi1 hCB1 response (Log [Compound] (M) -4.63927): -17.6928 | Gi1 hCB1 response (Log [Compound] (M) -5.05788): -21.811 | Gi1 hCB1 response (Log [Compound] (M) -5.47381): -11.1127 | Gi1 hCB1 response (Log [Compound] (M) -5.89285): -12.5003 | Gi1 hCB1 response (Log [Compound] (M) -6.31878): -6.681 | Gi1 hCB1 response (Log [Compound] (M) -6.72585): 6.524 | Gi1 hCB1 response (Log [Compound] (M) -7.14267): -2.6525 | Gi1 hCB1 response (Log [Compound] (M) -7.55284): 0.7047 | Gi1 hCB1 response (Log [Compound] (M) -8): -4.174 | Gi1 hCB1 response (Log [Compound] (M) -8.22186): 0.4361 | Gi1 hCB1 response (Log [Compound] (M) -8.39794): -4.779 | Gi1 hCB1 response (Log [Compound] (M) -8.68787): 4.89 | Gi1 hCB1 response (Log [Compound] (M) -9.15521): -2.764 | Gi1 hCB1 response (Log [Compound] (M) -9.61989): -2.876 | Gi1 hCB1 response (Log [Compound] (M) -10.0969): -2.115 | Gi1 hCB1 response (Log [Compound] (M) -10.5529): 4.689 | Gi1 hCB1 response (Log [Compound] (M) -11.0177): -4.667 | Gi1 hCB1 response (Log [Compound] (M) -11.4949): -5.853 | Gi1 hCB1 response (Log [Compound] (M) -11.9208): -0.9963 | Gi1 hCB1 response (Log [Compound] (M) -12.3979): 1.4433 | Gi1 hCB1 response (Log [Compound] (M) -12.8861): -2.25 | Gi1 hCB1 response (Log [Compound] (M) -13, individual replicate values): 4.375 and -8.248 | Gi1 hCB1 (Log [Compound] (M) -4.22186): 3.789 | GoB hCB1 (Log [Compound] (M) -4.22186): 6.14 | Gi1 hCB1 (Log [Compound] (M) -4.63927): -1.761 | GoB hCB1 (Log [Compound] (M) -4.63927): -3.176 | Gi1 hCB1 (Log [Compound] (M) -5.05788): -2.054 | GoB hCB1 (Log [Compound] (M) -5.05788): -0.4061 | Gi1 hCB1 (Log [Compound] (M) -5.47381): 0.08902 | GoB hCB1 (Log [Compound] (M) -5.47381): 1.896 | Gi1 hCB1 (Log [Compound] (M) -5.89285): 0.7519 | GoB hCB1 (Log [Compound] (M) -5.89285): 0.547 | Gi1 hCB1 (Log [Compound] (M) -6.31878): 0.1815 | GoB hCB1 (Log [Compound] (M) -6.31878): 1.86 | Gi1 hCB1 (Log [Compound] (M) -6.72585): 1.1836 | GoB hCB1 (Log [Compound] (M) -6.72585): 4.665 | Gi1 hCB1 (Log [Compound] (M) -7.14267): 0.9678 | GoB hCB1 (Log [Compound] (M) -7.14267): 2.363 | Gi1 hCB1 (Log [Compound] (M) -7.55284): 0.274 | GoB hCB1 (Log [Compound] (M) -7.55284): 5.3306 | Gi1 hCB1 (Log [Compound] (M) -8): 0.5207 | GoB hCB1 (Log [Compound] (M) -8): 3.155 | Gi1 hCB1 (Log [Compound] (M) -8.22186): 0.08902 | GoB hCB1 (Log [Compound] (M) -8.22186): -0.8557 | Gi1 hCB1 (Log [Compound] (M) -8.39794): 1.23 | GoB hCB1 (Log [Compound] (M) -8.39794): 3.334 | Gi1 hCB1 (Log [Compound] (M) -8.68787): 1.214 | GoB hCB1 (Log [Compound] (M) -8.68787): -1.521 | Gi1 hCB1 (Log [Compound] (M) -9.15521): 1.245 | GoB hCB1 (Log [Compound] (M) -9.15521): -0.6579 | Gi1 hCB1 (Log [Compound] (M) -9.61989): 2.463 | GoB hCB1 (Log [Compound] (M) -9.61989): 0.4211 | Gi1 hCB1 (Log [Compound] (M) -10.0969): 1.338 | GoB hCB1 (Log [Compound] (M) -10.0969): -1.125 | Gi1 hCB1 (Log [Compound] (M) -10.5529): 0.1353 | GoB hCB1 (Log [Compound] (M) -10.5529): -0.9456 | Gi1 hCB1 (Log [Compound] (M) -11.0177): 0.5053 | GoB hCB1 (Log [Compound] (M) -11.0177): 3.37 | Gi1 hCB1 (Log [Compound] (M) -11.4949): 0.5207 | GoB hCB1 (Log [Compound] (M) -11.4949): 5.385 | Gi1 hCB1 (Log [Compound] (M) -11.9208): 1.523 | GoB hCB1 (Log [Compound] (M) -11.9208): 2.741 | Gi1 hCB1 (Log [Compound] (M) -12.3979): 0.7674 | GoB hCB1 (Log [Compound] (M) -12.3979): 3.263 | Gi1 hCB1 (Log [Compound] (M) -12.8861): 0.2586 | GoB hCB1 (Log [Compound] (M) -12.8861): 4.072 | Gi1 hCB1 (Log [Compound] (M) -13): 1.954 and 3.465 | GoB hCB1 (Log [Compound] (M) -13): 3.838 and 3.119

Reference: PMC11882969 (Nature Communications, 2025)
